From US20250009856A1, “METHODS FOR TREATING RESPIRATORY DISEASES” (MUCPharm Pty Ltd, priority 2021, published 2025)
Where “and” joins values, the source holds several entries; their conditions need not be identical. Equal entries are not always repeated.

Key:
[1] = tested on: chemokines, cytokines and growth factors in tracheal aspirate samples from COVID-19 patients; test: Immunological inflammatory mediators, 27-plex bead assay; design: species or system human; conditions: BromAc 125 and 250 mcg + 2% NAC, or NAC alone at 2%; 60 minutes, 37° C.
Protocol: In order to verify the effect of BromAc in the inflammatory mediators present in tracheal aspirate (TA) samples from COVID-19 patients. TA specimens were treated with 125 to 250 μg of Bromelain and 2% NAC (BromAc) using the MAD device as described previously. Treated and untreated TA specimens were incubated at 37° C. in 6 well plates for 1 hour. After that, TA specimen aliquots were initially cleared by centrifugation at 800×g for 10 min, at room temperature and TA supernatants were transferred to fresh 2 mL microtubes. Samples were diluted 1:10 and incubated with magnetic beads covered with monoclonal antibodies specific to several immunological mediators, such as: chemokines (CXCL8, CCL11, CCL3, CCL4, CCL2, and CXCL10), inflammatory cytokines (IL-1b, IL-6, TNF-α, IL-12, IFN-g, IL-15 and IL-17), regulatory cytokines (IL-1Ra, IL-9. IL-10) and growth factors (FGF-basic, PDGF, VEGF, G-CSF. GM-CSF, IL-2 and IL-7). Experiments were carried out according to the manufacturer's instructions using the Procarta Human Cytokine 27-plex Assay, (Invitrogen, CA, USA). The immunological mediators were measured in TA samples and the concentrations of each sample was determined according to standard curves run for each molecule tested using a fifth parameter logistic fit analysis. The results were expressed as pg/mL for all mediators tested. […]

[2] = Dynamic viscosity (capillary tube) after aerosol treatment; conditions: AS; for Dynamic viscosity (γ), After: before 1.382 ± 0.013
Protocol: Artificial sputum was prepared following protocol as detailed by […] et al (Kirchner, S., et al., Use of artificial sputum medium to test antibiotic efficacy against Pseudomonas aeruginosa in conditions more relevant to the cystic fibrosis lung. Journal of visualized experiments: JOVE, 2012 (64)). Briefly 250 mg of porcine mucin, 200 mg of sperm DNA, 295 mg of diethylene triamine pentaacetic acid (DPTA), 25 mg sodium chloride, 110 mg potassium chloride, 140 mg Tris base were mixed in a volume of 45 ml of distilled water and pH adjusted to 7.0 using Trisbase. The volume of the solution was then adjusted to 50 ml. Further dilutions were then carried out to adjust viscosity as desired. Dynamic viscosity (Y) of sputum was measured using the capillary tube method as outlined in […]. and G. Castellano, Determination of the kinematic viscosity by the liquid rise in a capillary tube. […] Ensino de Física, 2013. 35. Artificial sputa (AS) were prepared as detailed above, and 1.5 ml of artificial sputum was carefully emptied into an endotracheal tube (in triplicates). A volume of 6.0 ml of NAC 10 mg/ml in PBS (pH.7.0) in triplicate was aerosolised using a nebulizer and passed over the sputum samples in the endotracheal tubes kept at 37° C. in a water bath. Similarly, the experiments were repeated using NAC 20 mg/ml in PBS (pH.7.0). The controls only received PBS (pH 7.0). The aerosol delivery time to empty 6.0 ml for each treatment was 25 min. The dynamic viscosity of the sputa was measured before and after using the capillary tube method, whilst the pipette flow time was also measured as described earlier using a 0.5 ml glass pipette. Samples were equilibrated to 25° C. before measurement A similar treatment as in the experiment described above for NAC was carried out using Bromelain (125 and 250 μg/ml) in PBS (pH.7.0) along with control using PBS (pH.7.0). Both dynamic viscosity and pipette flow time was measured as outlined earlier for both artificial and PMP simulated sputa models. Using a combination of NAC (20 mg/ml) with either 125 or 250 μg/ml Bromelain in PBS (pH.7.0), a similar investigation was carried out as outlined earlier and measurements were made for both artificial and simulated sputa models. D=(TREATED)-(UNTREATED/(UNTREATED)×100.

[3] = Sputum flow speed after mixing with BromAc, DNase and combinations; conditions: agent without DNASE: BR(250 ug/ml), NAC(20 mg/ml) or both; 1 hour, 37 deg C; Cont(PBS) 0.0436
Protocol: Artificial sputa was prepared following methodology with ingredients as in earlier experiments. To 1.5 ml of artificial sputa in a vial was added 0.5 ml of reagent containing the required bromelain, NAC, DNase and their combinations. Control vials included 0.5 ml of PBS only. The mixture was vortex mixed and incubated in a shaker water bath at 37 deg C. At the end of 1 hour, the samples were retrieved, vortex mixed and equilibrated to ambient room temperature before measuring dynamic viscosity and pipette flow.
Dynamic viscosity was determined using the capillary tube method as in earlier experiments, whilst the pipette flow was evaluated using a 0.5 ml pipette inclined at 60 deg angle. The pipette flow was calculated as shown below.
Pipette flow (€)=0.45 ml sputa/time to empty (sec).

[4] = Pipette flow speed after aerosol treatment; design: species or system human; conditions: SS; for Pipette flow speed (€), After: before 0.0137 ± 0.005
Protocol: Six grams of soft PMP mucin was homogenised using a shredder with phosphate buffer saline (PBS) (3.0 ml) with sonification and vortexed until a homogenous mixture was formed, with incubation at 37° C. to remove air bubbles and after which viscosity was adjusted (further dilutions with PBS). The pH was adjusted to 7.0 using either 1.0 M NaOH or 0.1 N Hydrochloric acid. Using a 0.5 ml glass pipette fixed at an angle of 60°, 0.5 ml of sample at 25° C. (ambient room temperature) was sucked up the pipette and the time taken to empty 0.3 ml of the sample was timed in sec. Pipette flow time (€) was calculated as follows: € (ml/sec)=0.3 ml/Time to empty 0.3 ml (sec) A similar investigation as above was carried out to determine a comparative dynamic viscosity and pipette flow time for PMP mucin simulated sputa (SS). A similar treatment as in the experiment described above for NAC was carried out using Bromelain (125 and 250 μg/ml) in PBS (pH.7.0) along with control using PBS (pH.7.0). Both dynamic viscosity and pipette flow time was measured as outlined earlier for both artificial and PMP simulated sputa models. Using a combination of NAC (20 mg/ml) with either 125 or 250 μg/ml Bromelain in PBS (pH.7.0), a similar investigation was carried out as outlined earlier and measurements were made for both artificial and simulated sputa models. D=(TREATED)−(UNTREATED/(UNTREATED)×100.

CC(=O)N[C@@H](CS)C(=O)O [NAC, N-acetylcysteine]
IL-9 level, compared to untreated [1]: the same effect was observed
D (%), decrease of dynamic viscosity (γ) ([2]; aerosol NAC 10 mg/ml): 6.0% and 6.0 ↓ %
Dynamic viscosity (γ), After ([2]; aerosol NAC 10 mg/ml, 6.0 ml over 25 min, 37° C.): 1.300 ± 0.002 cSt
D (%), decrease of dynamic viscosity (γ) ([2]; aerosol NAC 20 mg/ml): 9.8% and 10% and 9.8 ↓ %
Dynamic viscosity (γ), After ([2]; aerosol NAC 20 mg/ml): 1.247 ± 0.041 cSt
Sputum flow speed (€) [3]: 0.05 mL/s
D (%), increase of pipette flow speed (€) ([4]; aerosol NAC 10 mg/ml): 34% and 34 ↑ %
Pipette flow speed (€), After ([4]; aerosol NAC 10 mg/ml): 0.0183 ± 0.001 mL/s
D (%), increase of pipette flow speed (€) ([4]; aerosol NAC 20 mg/ml): 46% and 46 ↑ %
Pipette flow speed (€), After ([4]; aerosol NAC 20 mg/ml): 0.02 ± 0.002 mL/s
